Results published in US20090068687A1, “Screening platform for discovery of immunomodulatory activities in traditional medicine” (The Hong Kong Polytechnic University, priority 2004, published 2009).

Columns and labels:
Format in all cases: cell-based, rat
iNOS = assay: Western blotting of iNOS expression in splenocyte lysate after Rg1 stimulation; settings: 5 μg/ml Rg1, splenocyte lysate
Description: (§1) Rats were placed under deep ether anesthesia and exsanguinated via the abdominal aorta. Spleen was removed by aseptic techniques before washed twice in 10 mL of RPMI-1640 (Gibco, U.S.A.) medium containing 1000 U/mL penicillin-streptomycin (PS) (Gibco, U.S.A.). Spleens were then cut into small pieces before being sucked up and down with a plunger in a plastic syringe. Single cell suspension was prepared and placed into the same medium containing 1000 U/mL PS, and 5% acid citric dextrose. Splenocytes were then isolated by gradient centrifugation by layering the single cell suspension onto Ficoll-Paque Plus gradient (Amersham Bioscience, H.K. Ltd.) and spun at 400 g for 35 minutes at room temperature. The splenocytes-containing fraction was collected. […]
(§2) Supernatants of splenocytes cell culture with and without Rg1 incubation were harvested at different time points and used for the detection of TNF-α and IFN-γ. […] The protein content of the supernatant/lysate was determined by the Bradford method (Bio-Rad Laboratory, U.S.A.). For each analysis, 350 μg of protein was analyzed by a 12.5% reducing SDS-PAGE gel ran at a constant voltage (150V) for 1 hour. […] Positive binding was detected using the SuperSignal West Pico Chemiluminescent Kit (Pierce, U.S.A.) and the exposed X-ray films (Kodak) were scanned with a Molecular Dynamics Densitometer (Bio-Rad Laboratories, U.S.A.).

IFN-γ [1] = assay: Western blotting of IFN-γ secretion in culture medium of Rg1-stimulated splenocytes; settings: 5 μg/ml Rg1, culture medium, 24 hour
Description: as §1, §2

IFN-γ [2] = assay: ELISA of IFN-γ secretion from splenocytes with and without Rg1
Description: as §1, with “collected. Erythrocytes were lyzed by adding four volumes of ice-cold ammonium chloride solution (pH 7.4) at room temperature for 5 minutes and splenocytes were washed twice in plain medium.” for “collected.”
(§3) IFN-γ as well as TNF-α ELISA assays were performed using the OptiEIATM rat IFN-γ and TNF-α kits (Pharmigen, U.S.A.). […] After the addition of avidin-HRP conjugate, color was developed by the addition of 2,2-Azin-bis-3-thylbenzthiazoline-6-sulfonic acid and the color change was monitored at an absorbance of 405 nm with a Microplate Reader (Bio-Rad Laboratories, U.S.A.) The amount of INF-γ and TNF-α were calculated by comparing with the standard.

TNF-α [3] = assay: ELISA of TNF-α secretion from splenocytes with and without Rg1
Description: as §1, with “collected. Erythrocytes were lyzed by adding four volumes of ice-cold ammonium chloride solution (pH 7.4) at room temperature for 5 minutes and splenocytes were washed twice in plain medium.” for “collected.”
as §3

splenocytes = assay: 2-DE (Two-in-one gel) / MALDI-TOF MS analysis of differential protein expression in splenocyte lysates
Description: Rats were placed under deep ether anesthesia and exsanguinated via the abdominal aorta. Spleen was removed by aseptic techniques before washed twice in 10 mL of RPMI-1640 (Gibco, U.S.A.) medium containing 1000 U/mL penicillin-streptomycin (PS) (Gibco, U.S.A.). Spleens were then cut into small pieces before being sucked up and down with a plunger in a plastic syringe. Single cell suspension was prepared and placed into the same medium containing 1000 U/mL PS, and 5% acid citric dextrose. Splenocytes were then isolated by gradient centrifugation by layering the single cell suspension onto Ficoll-Paque Plus gradient (Amersham Bioscience, H.K. Ltd.) and spun at 400 g for 35 minutes at room temperature. The splenocytes-containing fraction was collected. Erythrocytes were lyzed by adding four volumes of ice-cold ammonium chloride solution (pH 7.4) at room temperature for 5 minutes and splenocytes were washed twice in plain medium. Lymphocytes were stained with Wright-Giema stain before examination under light microscope. Cell viability and number were examined after trypan blue staining under the light microscope. Splenocytes (1×10^6) were cultured in complete RPMI-1640 medium containing 1000 U/mL PS, supplemented with 2 g/L sodium carbonate. Cells were re-suspended in the same medium with 10% FCS (Gibco, U.S.A.) and subjected to various treatments after 24 hours incubation.
Rg1 (dosage of 5 μg/mL) was added to splenocytes in PBS buffer in 6-well flat-bottomed plates (Nunc Maxisorp, U.S.A.) in a 5% CO2 incubator at 37° C. Samples of conditioned media from the incubation mixture were harvested at varying time points (from 12-72 hours). These samples were kept at −80° C. until use. No sample was kept for more than 2 months. Besides Western Blotting, global protein expression in samples of Rg1 treated splenocytes (at 12 hours and 24 hours intervals) were also performed using 2-DE analysis. Cells incubated with PBS for 24 hours were used as control.
Splenocytes on culture dishes were rinsed once with RPMI-1640 after incubation with or without Rg1. Subsequently, […] trypsin containing 0.2 g/L EDTA was added and allowed to incubate for 3 min. Cells were then collected by centrifugation at 1,000 g for 5 minutes and washed with PBS (pH 7.2) twice. Splenocytes were then lysed with a minimal amount of lysis buffer (usually 200 μl) containing 4% Triton X-100, 9 M urea, and 1 mM PMSF for 10 minutes on ice. The supernatant was collected by centrifugation at 3,000 g for 10 minutes and protein contents were measured by a modified Bradford method using a protein assay kit by Bio-Rad Laboratories, U.S.A. Cell lysates from different animals with the same treatment were pooled together at a protein ratio of 1:1 and was used for 2-DE analysis. 120 μg of splenocytes lysate [in a buffer containing 9M Urea, 2% w/v Triton X-100, 0.5% w/v DDT (Sigma, U.S.A.), 0.4% v/v IPG buffer 4-7 (Amersham Pharmacia Biotech, Uppsala, Sweden) and trace amount of bromophenol blue to a final volume of 300 μl] was used for in-gel sample rehydration.
Samples were applied onto IPG strips pH 4-7 (3×170 mm, Bio-Rad Laboratories, U.S.A.). Rehydration and subsequent isoelectric focusing was performed using either a Protean IEF Cell (Bio-Rad Laboratories, U.S.A.) or an IPGphor (Amersham Biosciences, U.S.A.). Rehydration was performed at room temperature for 16 hour at 50 V in the IPG strip holder covered with low viscosity paraffin oil. Isoelectric focusing was then performed using 500 V (1 hour), 1000 V (1 hour), 4000 V (2 hour) and 8000 V (2 hour) sequentially. Strips were then equilibrated in […] Tris-HCl equilibration buffer, pH 6.8, containing 1% (w/v) DTT (Sigma, U.S.A.), 9M urea, 30% v/v glycerol, 2% w/v SDS and a trace amount of bromophenol blue for 10 minutes. […]

TNF-α [4] = assay: Western blotting of TNF-α secretion in culture medium of Rg1-stimulated splenocytes; settings: 5 μg/ml Rg1, culture medium
Description: as §1, §2

[5] = 5 μg/mL Rg1, ELISA time course 12-72 hours
[6] = 5 μg/mL Rg1, ELISA, versus splenocytes without Rg1
[7] = Rg1 24 hours versus PBS control
[8] = Rg1 treated versus normal sample, Two-in-one gels

SMILES: CC(C)=CCC[C@](C)(O[C@@H]1O[C@H](CO)[C@@H](O)[C@H](O)[C@H]1O)[C@H]1CC[C@]2(C)[C@@H]1[C@H](O)C[C@@H]1[C@@]3(C)CC[C@H](O)C(C)(C)[C@@H]3[C@@H](O[C@@H]3O[C@H](CO)[C@@H](O)[C@H](O)[C@H]3O)C[C@]12C [Rg1]
- iNOS detection by Western blotting (iNOS; 12 hour): detected
- iNOS detection by Western blotting (iNOS; 24 hour): detected
- IFN-γ detection by Western blotting (IFN-γ [1]): detected
- incubation time at which IFN-γ level reached a maximum (IFN-γ [2]; [5]): 24 h
- increase in quantity of IFN-γ after Rg1 induction (IFN-γ [2]; [6]): more than 1000 fold
- incubation time at which TNF-α level reached a maximum (TNF-α [3]; [5]): 24 h
- increase in quantity of TNF-α after Rg1 induction (TNF-α [3]; [6]): more than 1000 fold
- number of protein spots detected on the gel half run with the Rg1 treated sample (splenocytes; 24 hours incubation with Rg1, about 102 spots in normal sample): 122
- Regulation of Alpha-mannosidase II (spot 6) (splenocytes; [7]): Up-
- Regulation of Cytochrome C oxidase polypeptide IV precursor (spot 2) (splenocytes; [7]): Up-
- Regulation of DNA polymerase beta (spot 3) (splenocytes; [7]): Up-
- Regulation of Guanine nucleotide-binding protein G (spot 4) (splenocytes; [7]): Up-
- Regulation of Homeotic protein LH-2 (spot 1) (splenocytes; [7]): Up-
- Regulation of T-cell surface glycoprotein CD5 precursor (spot 5) (splenocytes; [7]): Up-
- number of protein spots down-regulated (splenocytes; [8]): 38
- number of proteins up-regulated (splenocytes; [8]): 87
- number of spots without significant apparent changes (splenocytes; [8]): 38
- TNF-α detection by Western blotting (TNF-α [4]; 24 hour): detected
- TNF-α detection by Western blotting (TNF-α [4]; 48 hour): detected
